Structures are written as SMILES.

The values that follow come from article PMC4674756, “NMR structure and function of Helicoverpa armigera sterol carrier protein-2, an important insecticidal target from the cotton bollworm” (Scientific Reports, 2015).

One experiment deals with HaSCP-2 F110W (Helicoverpa armigera, UniProt K7NSY9, F500W). It is filed as binding. To be noted: mutant F110W; P vs WT 0.019. An excerpt: (§1) In order to further confirm the key residues of HaSCP-2 that are involved in the ligand binding, based on the HaSCP-2 structure and docking simulation results we selected several predicted amino acid residues as shown in Table 3 (cholesterol and β-sitosterol) to perform single site mutation experiments to investigate the mechanism of ligand binding in HaSCP-2.
(§2) Single site amino acid mutations in the pGEX-KG/trHaSCP-2 were introduced using the QuikChange II Site-Directed Mutagenesis kit (Stratagene, La Jolla, CA). The Y51, F53, F89, I91, F110, I117 and Q131 sites of HaSCP-2 were selected to perform mutation.
(§3) HaSCP-2 binding activity to cholesterol was determined by using NBD-cholesterol binding assays. In truncation experiments, deduced HaSCP-2 and truncated HaSCP-2 were used for NBD-cholesterol binding assay; while as in mutation experiment, truncated HaSCP-2 (defined as wild type HaSCP-2) and mutated HaSCP-2 were assayed. HaSCP-2 was diluted in 10 mM KHPO4 buffer (pH 7.4) to a serial of varied concentrations […], respectively.

A further experiment deals with HaSCP-2 F89A (Helicoverpa armigera, UniProt K7NSY9, F479A). It is filed as binding. To be noted: mutant F89A; P vs WT 0.038.
From the text: as §1, §2, §3

A further experiment deals with HaSCP-2 F53W (Helicoverpa armigera, UniProt K7NSY9, F443W). It is filed as binding. Conditions: mutant F53W; P vs WT 0.026.
From the text: as §1, §2, §3

For the next experiment, the target named is HaSCP-2 F53A (Helicoverpa armigera, UniProt K7NSY9, F443A). Format: binding. Conditions: mutant F53A; P vs WT 0.031.
From the text: as §1, §2, §3

For a further experiment, the target named is HaSCP-2 Y51A (Helicoverpa armigera, UniProt K7NSY9, Y441A). Format: binding. Conditions: mutant Y51A; P vs WT 0.023.
From the text: as §1, §2, §3

Another experiment concerns the target HaSCP-2 I117M (Helicoverpa armigera, UniProt K7NSY9, I507M). Format: binding. Conditions: mutant I117M; P vs WT 0.043.
From the text: as §1, §2, §3

The next experiment addresses HaSCP-2 Q131A (Helicoverpa armigera, UniProt K7NSY9, Q521A). It is filed as binding. Conditions: mutant Q131A; P vs WT 0.034.
From the text: as §1, §2, §3

Experiment [1] has as its target truncated HaSCP-2 (trHaSCP-2) (Helicoverpa armigera, UniProt K7NSY9). As to the kind of experiment: NBD-cholesterol binding assay, truncated (wild type) HaSCP-2. To be noted: NBD-cholesterol 0.25 μM, protein 25 nM to 15 μM, one site binding non-linear regression, R^2 = 0.99. As to the method:
(§4) NBD-cholesterol binding assays were performed to investigate the biological function of HaSCP-2 in this study. Both the recombinant full length and trHaSCP-2 were examined for NBD-cholesterol binding (Kd). Glutathione S-transferase (GST) was used as a negative control as before. The final concentration of NBD-cholesterol was kept constant at 0.25 μM and the concentration of full length or truncated HaSCP-2 was tested in a range from 25 nM to 15 μM. The increasing concentration of full length or truncated HaSCP-2 led to the increase in the fluorescence emission value of NBD-cholesterol. […] The binding curves were analyzed by using the one site binding non-linear regression model adopted in the similar studies. […] It is quite likely that the N-terminal and C-terminal residues that were deleted may not be necessary for the ligand binding activity of HaSCP-2, as shown that no significant differences in binding affinity between the truncated HaSCP-2 and full length HaSCP-2.
(§5) HaSCP-2 binding activity to cholesterol was determined by using NBD-cholesterol binding assays. […] Then, the samples were applied to measure the fluorescence signals using a fluorescence microplate reader (GeminiXPS, Molecular Devices). Fluorescence was excited at 485 nm and the emission was measured at 530 nm. […]

A further experiment concerns the target full length HaSCP-2 (Helicoverpa armigera, UniProt K7NSY9). As to the kind of experiment: NBD-cholesterol binding assay, full length (deduced) HaSCP-2. To be noted: NBD-cholesterol 0.25 μM, protein 25 nM to 15 μM, one site binding non-linear regression, R^2 = 0.99. Here is the method:
as §4, §5

The target in a further experiment is HaSCP-2 (Helicoverpa armigera, UniProt K7NSY9). As to the kind of experiment: biochemical.
In experiment [2] the test system is Helicoverpa armigera larvae. As to the kind of experiment: Cholesterol levels in fat body of larvae treated with SCP-2 inhibitors. Format: in vivo. Conditions: fat body dissected at 5th instar. As to the method: To investigate the effects of SCPI suppression on cholesterol absorption and accumulation in the fat body, in vivo experiments were conducted. The inhibitory effects of SCPIs on cholesterol uptake were tested at the early stages of 3rd and 4th instar larvae. H. armigera larvae were treated with SCPI-1 and mangostin. Because the fat body of insects is the main tissues of cholesterol storage, the fat bodies of the treated larvae were dissected at 5th instar and the concentration of cholesterol in the fat body was measured. […] Similarly, for the mangostin treatment group, there was a 2-fold decrease in the cholesterol levels (p = 0.05) (Fig. 9B 3rd) when the treatment started at 3rd instar stadium. […]
Figure 9 The levels of cholesterol in Helicoverpa armigera larvae treated by SCP-2 inhibitors. The cholesterol levels in the fat body of Helicoverpa armigera larvae which were treated with two inhibitors (AeSCPI-1 and mangostin) were determined. […] The concentration of cholesterol and total protein from each sample were measured. […] Larvae were treated and samples were measured in the same way as AeSCPI-1. […]
The H.armigera larvae were reared according to previous methods. […] Because the fat body of insects is the main tissue of cholesterol storage, the fat bodies of the treated larvae were dissected at 5th instar and the concentration of cholesterol in the fat body was measured. […]

HaSCP-2, sequence (K7NSY9 entry or part of it): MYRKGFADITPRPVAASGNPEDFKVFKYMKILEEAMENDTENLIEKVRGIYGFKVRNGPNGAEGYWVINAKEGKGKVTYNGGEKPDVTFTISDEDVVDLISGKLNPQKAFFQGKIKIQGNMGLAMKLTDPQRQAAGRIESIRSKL
full length HaSCP-2, sequence (K7NSY9 entry or part of it): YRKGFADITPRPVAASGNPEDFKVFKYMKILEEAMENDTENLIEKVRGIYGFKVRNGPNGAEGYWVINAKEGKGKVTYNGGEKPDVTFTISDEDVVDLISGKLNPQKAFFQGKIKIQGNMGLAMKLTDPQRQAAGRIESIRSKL
HaSCP-2 F53W, sequence (K7NSY9 entry or part of it F443W): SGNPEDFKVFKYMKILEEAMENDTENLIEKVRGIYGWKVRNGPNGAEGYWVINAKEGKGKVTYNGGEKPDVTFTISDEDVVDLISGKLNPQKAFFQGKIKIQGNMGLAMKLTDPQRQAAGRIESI
HaSCP-2 Q131A, sequence (K7NSY9 entry or part of it Q521A): as the sequence (K7NSY9 entry or part of it F443W) above, with W37F, Q115A counted along it
HaSCP-2 F110W, sequence (K7NSY9 entry or part of it F500W): as the sequence (K7NSY9 entry or part of it F443W) above, with W37F, F94W counted along it
HaSCP-2 I117M, sequence (K7NSY9 entry or part of it I507M): as the sequence (K7NSY9 entry or part of it F443W) above, with W37F, I101M counted along it
HaSCP-2 F53A, sequence (K7NSY9 entry or part of it F443A): as the sequence (K7NSY9 entry or part of it F443W) above, with W37A counted along it
HaSCP-2 Y51A, sequence (K7NSY9 entry or part of it Y441A): as the sequence (K7NSY9 entry or part of it F443W) above, with Y35A, W37F counted along it
truncated HaSCP-2 (trHaSCP-2), sequence (K7NSY9 entry or part of it): as the sequence (K7NSY9 entry or part of it F443W) above, with W37F counted along it
HaSCP-2 F89A, sequence (K7NSY9 entry or part of it F479A): as the sequence (K7NSY9 entry or part of it F443W) above, with W37F, F73A counted along it

As for `C[C@H](CNc1ccc([N+](=O)[O-])c2nonc12)[C@H]1CC[C@H]2[C@@H]3CC=C4C[C@@H](O)CC[C@]4(C)[C@H]3CC[C@]12C` [NBD-cholesterol], the Kd (commonly a measure of binding affinity in units of concentration) at HaSCP-2 F110W turned out to be 3240 nM; at HaSCP-2 F89A it was 3270 nM; on HaSCP-2 F53W, 3410 nM; on HaSCP-2 F53A, 3070 nM; at HaSCP-2 Y51A, 2650 nM; on HaSCP-2 I117M it was 1800 nM. For the same compound, the Kd on HaSCP-2 Q131A came to 3770 nM; in experiment [1] it was 2450 nM; on full length HaSCP-2 it was 2800 nM.
In the case of `Br.CC(=O)Nc1ccc(Nc2nc(-c3ccc(Cl)c(Cl)c3)cs2)cc1` [AeSCPI-1, N-(4-{[4-(3,4-dichlorophenyl)-1,3-thiazol-2-yl]amino}phenyl) acetamide hydrobromide], on HaSCP-2, a half-maximal response (EC50) required 760 nM. For the same compound, in experiment [2] (larvae treated at 3rd instar stage via diet, p = 0.023), the “cholesterol levels in the fat body vs control group” value is “significantly lower”.
On to `COc1c(O)cc2oc3cc(O)c(CC=C(C)C)c(O)c3c(=O)c2c1CC=C(C)C` [α-mangostin, 1,3,6-trihydroxy-7-methoxy-2,8-bis(3-methylbut-2-enyl)-9H-xanthen-9-one], for which the response on HaSCP-2 was half-maximal at 730 nM (EC50). In addition, the “decrease in the cholesterol levels in the fat body” value in experiment [2] (treatment started at 3rd instar stadium via diet, p = 0.05) worked out at 2 fold.
